The values below are quoted from earlier work in patent US20100221327A1, “Nanoparticulate azelnidipine formulations” (Elan Pharma International Limited, priority 2005, published 2010).

Entries after “also recorded” stand apart in the source; their conditions may differ.

In the case of `CC1=C(C(=O)OC(C)C)C(c2cccc([N+](=O)[O-])c2)C(C(=O)OC2CN(C(c3ccccc3)c3ccccc3)C2)=C(N)N1` (racemic) [Azelnidipine, (±)-3-(1-Diphenylmethylazetidin-3-yl)-5-isopropyl 2-amino-1,4-dihydro-6-methyl-4-(3-nitrophenyl)-3,5-pyridinedicarboxylate], the Solubility in water entry is on record as “only slightly soluble; also recorded: practically insoluble”.
